pIC50, pKi: −log10 of the molar value.
Legend:
Acetylcholinesterase [1] = molecular target: T1, Acetylcholinesterase (Electrophorus electricus, UniProt O42275)
Description: Binding affinity to electrical eel AChE assessed as inhibition constant incubated for 20 mins by absorbance based analysis

Cholinesterase [2] = molecular target: T2, Cholinesterase (Homo sapiens, UniProt P06276)
Acetylcholinesterase [3] = molecular target: T3, Acetylcholinesterase (Mus musculus, UniProt P21836); assay: Inhibition of mouse brain AChE; format: tissue-based
T3 sequence (P21836 whole entry): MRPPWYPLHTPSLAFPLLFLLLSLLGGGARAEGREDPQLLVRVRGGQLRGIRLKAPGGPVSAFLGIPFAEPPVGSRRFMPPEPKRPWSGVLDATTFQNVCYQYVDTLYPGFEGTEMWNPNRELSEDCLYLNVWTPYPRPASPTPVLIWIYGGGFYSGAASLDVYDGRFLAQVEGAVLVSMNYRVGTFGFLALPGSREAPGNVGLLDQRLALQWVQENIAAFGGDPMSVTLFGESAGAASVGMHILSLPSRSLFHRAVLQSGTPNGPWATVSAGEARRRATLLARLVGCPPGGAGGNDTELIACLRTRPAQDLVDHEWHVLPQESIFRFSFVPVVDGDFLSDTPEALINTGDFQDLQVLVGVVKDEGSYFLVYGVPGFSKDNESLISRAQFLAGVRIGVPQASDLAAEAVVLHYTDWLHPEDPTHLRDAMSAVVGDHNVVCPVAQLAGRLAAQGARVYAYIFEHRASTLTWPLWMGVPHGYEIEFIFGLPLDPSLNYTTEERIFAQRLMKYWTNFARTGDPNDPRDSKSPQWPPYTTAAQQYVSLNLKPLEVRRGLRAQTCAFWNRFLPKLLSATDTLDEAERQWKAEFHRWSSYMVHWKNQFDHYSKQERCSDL

Cholinesterase [4] = molecular target: Cholinesterase (Mus musculus, UniProt Q03311); assay: Inhibition of mouse serum BuChE; format: cell-free
Acetylcholinesterase [5] = molecular target: T4, Acetylcholinesterase (Homo sapiens, UniProt P22303); assay: Inhibition of AChE (unknown origin)
Acetylcholinesterase [6] = molecular target: T1, Acetylcholinesterase; assay: Inhibition of electrical eel AChE by ellman's method
Cholinesterase [7] = molecular target: T5, Cholinesterase (Equus caballus, UniProt P81908)
Description: Inhibition of equine serum BuChE by ellman's method

Cholinesterase [8] = molecular target: T2, Cholinesterase; assay: Binding affinity to BuChE (unknown origin) assessed as inhibition constant incubated for 20 mins by absorbance based analysis
Acetylcholinesterase [9] = molecular target: T4, Acetylcholinesterase; assay: Inhibition of AChE (unknown origin) at 50 uM incubated for 20 mins by absorbance based analysis relative to control
Cholinesterase [10] = molecular target: T2, Cholinesterase; assay: Inhibition of BuChE (unknown origin) at 50 uM incubated for 20 mins by absorbance based analysis relative to control
Acetylcholinesterase [11] = molecular target: T4, Acetylcholinesterase
Description: Binding affinity to AChE (unknown origin) assessed as inhibition constant incubated for 30 mins by ellman's method

Cholinesterase [12] = molecular target: T2, Cholinesterase; remark: listed apart in the source
Description: Binding affinity to BuChE (unknown origin) assessed as inhibition constant incubated for 30 mins by ellman's method

Cholinesterase [13] = molecular target: T5, Cholinesterase; assay: Binding affinity to horse serum BuChE using ATCh-iodide as substrate by ellman's method
Homo sapiens = species: Homo sapiens; assay: Selectivity ratio of IC50 for AChE (unknown origin) to IC50 for BuChE (unknown origin)
Cholinesterase [14] = molecular target: T2, Cholinesterase; assay: Binding affinity to BuChE (unknown origin) assessed as inhibition constant by ellman's method
[15] = Lipophilicity, logP of the compound; format: physicochemical; conditions: octanol/water

T2 sequence (P06276 whole entry): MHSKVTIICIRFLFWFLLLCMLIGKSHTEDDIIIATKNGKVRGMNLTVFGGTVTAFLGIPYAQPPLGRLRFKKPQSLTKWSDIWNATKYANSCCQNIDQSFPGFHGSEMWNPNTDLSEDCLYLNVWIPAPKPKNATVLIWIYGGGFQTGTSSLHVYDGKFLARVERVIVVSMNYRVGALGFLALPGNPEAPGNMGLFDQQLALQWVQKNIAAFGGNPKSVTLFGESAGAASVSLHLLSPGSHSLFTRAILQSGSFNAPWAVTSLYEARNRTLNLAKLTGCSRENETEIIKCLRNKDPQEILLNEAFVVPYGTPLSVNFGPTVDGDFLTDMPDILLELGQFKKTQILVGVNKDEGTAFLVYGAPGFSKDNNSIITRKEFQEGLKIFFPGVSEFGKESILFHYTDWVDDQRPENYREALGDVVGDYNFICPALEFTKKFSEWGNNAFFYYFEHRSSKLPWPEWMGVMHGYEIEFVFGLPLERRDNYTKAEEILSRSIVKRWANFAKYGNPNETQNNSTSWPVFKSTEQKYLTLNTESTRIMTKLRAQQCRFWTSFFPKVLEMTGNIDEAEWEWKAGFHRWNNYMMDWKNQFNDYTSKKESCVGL
Chain of Cholinesterase (Mus musculus, UniProt Q03311) (Q03311 whole entry): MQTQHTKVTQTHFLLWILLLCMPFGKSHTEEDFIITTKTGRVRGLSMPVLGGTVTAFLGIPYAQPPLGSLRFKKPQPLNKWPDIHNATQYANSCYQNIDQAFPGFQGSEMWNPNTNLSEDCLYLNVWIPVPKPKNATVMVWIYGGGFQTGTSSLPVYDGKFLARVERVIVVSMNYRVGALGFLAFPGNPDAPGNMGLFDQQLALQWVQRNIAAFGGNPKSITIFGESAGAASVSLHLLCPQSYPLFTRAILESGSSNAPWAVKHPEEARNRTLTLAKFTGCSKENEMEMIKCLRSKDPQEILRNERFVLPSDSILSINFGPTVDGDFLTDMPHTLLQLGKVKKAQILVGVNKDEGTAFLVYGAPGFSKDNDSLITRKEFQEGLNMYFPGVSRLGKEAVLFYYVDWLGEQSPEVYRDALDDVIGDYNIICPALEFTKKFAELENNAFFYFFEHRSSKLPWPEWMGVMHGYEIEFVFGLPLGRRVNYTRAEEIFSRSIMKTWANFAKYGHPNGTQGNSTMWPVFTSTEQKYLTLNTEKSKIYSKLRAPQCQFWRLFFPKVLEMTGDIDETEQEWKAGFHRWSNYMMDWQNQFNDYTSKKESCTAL
T1 sequence (O42275 whole entry): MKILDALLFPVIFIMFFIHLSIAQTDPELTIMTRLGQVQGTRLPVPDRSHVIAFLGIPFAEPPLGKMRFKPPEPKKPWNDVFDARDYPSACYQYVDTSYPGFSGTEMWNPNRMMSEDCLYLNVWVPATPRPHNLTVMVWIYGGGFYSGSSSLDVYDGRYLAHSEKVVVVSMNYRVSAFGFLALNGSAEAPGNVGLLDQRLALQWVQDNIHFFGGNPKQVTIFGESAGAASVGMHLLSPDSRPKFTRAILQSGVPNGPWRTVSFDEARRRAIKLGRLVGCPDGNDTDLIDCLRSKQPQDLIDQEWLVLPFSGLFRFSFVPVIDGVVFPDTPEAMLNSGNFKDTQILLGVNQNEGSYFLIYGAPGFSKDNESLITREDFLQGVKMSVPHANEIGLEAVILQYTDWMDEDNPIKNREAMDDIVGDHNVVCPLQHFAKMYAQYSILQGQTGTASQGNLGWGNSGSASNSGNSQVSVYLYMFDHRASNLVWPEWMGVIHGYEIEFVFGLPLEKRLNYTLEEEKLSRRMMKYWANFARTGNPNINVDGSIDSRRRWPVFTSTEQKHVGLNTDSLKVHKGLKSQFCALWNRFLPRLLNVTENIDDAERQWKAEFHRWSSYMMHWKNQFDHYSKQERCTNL
T5 sequence (P81908 whole entry): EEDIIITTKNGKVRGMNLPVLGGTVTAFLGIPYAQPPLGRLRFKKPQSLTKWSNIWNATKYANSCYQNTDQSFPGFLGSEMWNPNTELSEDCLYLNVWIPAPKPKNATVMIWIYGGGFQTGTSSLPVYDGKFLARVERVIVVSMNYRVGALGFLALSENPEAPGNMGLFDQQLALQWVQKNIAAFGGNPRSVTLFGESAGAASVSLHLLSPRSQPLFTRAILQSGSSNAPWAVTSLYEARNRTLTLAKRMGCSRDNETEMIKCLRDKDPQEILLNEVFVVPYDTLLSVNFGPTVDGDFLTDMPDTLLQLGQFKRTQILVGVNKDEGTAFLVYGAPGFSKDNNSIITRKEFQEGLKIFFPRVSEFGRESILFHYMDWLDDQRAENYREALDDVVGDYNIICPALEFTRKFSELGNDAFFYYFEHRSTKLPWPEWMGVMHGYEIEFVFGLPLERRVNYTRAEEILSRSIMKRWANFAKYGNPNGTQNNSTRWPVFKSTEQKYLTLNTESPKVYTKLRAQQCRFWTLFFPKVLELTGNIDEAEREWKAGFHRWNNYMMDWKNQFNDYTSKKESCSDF
T4 sequence (P22303 whole entry): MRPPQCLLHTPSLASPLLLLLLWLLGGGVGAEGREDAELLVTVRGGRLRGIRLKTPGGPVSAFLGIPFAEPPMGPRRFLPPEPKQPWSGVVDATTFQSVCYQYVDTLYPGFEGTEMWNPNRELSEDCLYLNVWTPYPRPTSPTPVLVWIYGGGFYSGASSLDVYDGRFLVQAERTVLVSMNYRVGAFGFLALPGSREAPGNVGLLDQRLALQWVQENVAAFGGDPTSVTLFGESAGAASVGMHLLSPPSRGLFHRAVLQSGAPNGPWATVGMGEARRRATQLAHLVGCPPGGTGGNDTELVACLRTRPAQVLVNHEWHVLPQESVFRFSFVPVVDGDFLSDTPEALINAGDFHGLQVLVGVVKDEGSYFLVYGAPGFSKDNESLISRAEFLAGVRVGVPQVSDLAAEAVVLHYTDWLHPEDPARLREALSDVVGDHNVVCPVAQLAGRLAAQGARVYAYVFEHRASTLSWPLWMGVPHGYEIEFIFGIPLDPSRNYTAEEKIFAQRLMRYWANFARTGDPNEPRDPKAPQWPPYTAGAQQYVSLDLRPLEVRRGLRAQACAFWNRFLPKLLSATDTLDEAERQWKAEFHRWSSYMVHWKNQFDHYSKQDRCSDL

## COC1O[C@H](Cn2ccc(=O)n(C[C@H]3O[C@H](OC)[C@H](OCc4ccccc4)[C@@H](OCc4ccccc4)[C@@H]3OCc3ccccc3)c2=O)[C@@H](OCc2ccccc2)[C@H](OCc2ccccc2)[C@H]1OCc1ccccc1 (stereo not given in full)
Acetylcholinesterase [1]
  pKi: 5.38
Cholinesterase [2]
  pKi: 5.40

## CC1(C)O[C@H]2O[C@H](CNCCCCCCCCCCNc3c4c(nc5ccccc35)CCCC4)[C@H](O)[C@H]2O1
Acetylcholinesterase [3]
  pIC50: 8.00
Cholinesterase [4]
  pIC50: 7.51

## COc1cc(CO)ccc1O[C@@H]1O[C@H](CO)[C@@H](O)[C@H](O)[C@H]1O [VANILLOLOSIDE]
Acetylcholinesterase [5]
  pIC50: 5.34

## CCCCCCCCCCCCNC(=O)[C@@H](OCc1ccccc1)[C@H]1OC(N=[N+]=[N-])[C@H](OC(C)=O)[C@H]1OC(C)=O (stereo not given in full)
Acetylcholinesterase [1]
  pKi: < 4.00

## COc1ccc2c(c1)c(=O)c1ccccc1n2CCCCCCn1cc(CO[C@@H]2O[C@H](CO)[C@@H](O)[C@H]2O)nn1
Acetylcholinesterase [6]
  pIC50: 4.09
Cholinesterase [7]
  pIC50: 4.46

## CCCCCCCCO[C@H]1[C@H](OC(C)=O)[C@@H](Cn2c(=O)c3c(ncn3C)n(C)c2=O)OC(OC(C)=O)[C@@H]1OC(C)=O (stereo not given in full)
Cholinesterase [8]
  pKi: 5.27
Acetylcholinesterase [9]
  inhibition: 66.5%
Cholinesterase [10]
  inhibition: 75.1%

## CCCCCCCCCCCCNC(=O)[C@@H](OCc1ccccc1)[C@H]1O[C@H](N=[N+]=[N-])[C@H](OC(C)=O)[C@H]1OCc1ccccc1
Acetylcholinesterase [1]
  pKi: < 4.00

## CC(=O)Nc1nc(Cl)c2ncn(C3O[C@H](C(=O)NCc4ccccc4)[C@@H](OC(C)=O)[C@@H](OC(C)=O)[C@H]3OC(C)=O)c2n1 (stereo not given in full)
Acetylcholinesterase [11]
  pKi: 4.51
Cholinesterase [12]
  pKi: < 4.00

## COc1ccc2c(c1)c(=O)c1ccccc1n2CCCCCCn1cc(CO[C@H]2C[C@H](O)[C@@H](CO)O2)nn1
Acetylcholinesterase [6]
  pIC50: 4.07
Cholinesterase [7]
  pIC50: 4.45

## CC(=O)Nc1nc(Cl)c2ncn(C3O[C@H]4[C@H](OC(=O)[C@@H]4O)[C@H]3OC(C)=O)c2n1 (stereo not given in full)
Acetylcholinesterase [11]
  pKi: 4.63
Cholinesterase [12]
  pKi: < 4.00

## OC[C@H]1O[C@@H](OCCn2cnc3ccccc32)[C@H](O)[C@@H](O)[C@H]1O
Cholinesterase [13]
  pKi: 3.11

## CC(=O)Nc1nc(Cl)c2ncn(C3O[C@H](C(=O)O)[C@@H](OC(C)=O)[C@@H](OC(C)=O)[C@H]3OC(C)=O)c2n1 (stereo not given in full)
Acetylcholinesterase [11]
  pKi: 4.57
Cholinesterase [12]
  pKi: < 4.00

## CC1=C(CO[C@@H]2O[C@H](CO[C@@H]3O[C@H](CO)[C@@H](O)[C@H](O)[C@H]3O)[C@@H](O)[C@H](O)[C@H]2O)C(C)(C)CCC1
Acetylcholinesterase [5]
  pIC50: 5.49

## CCCCCCCCCCCCNC(=O)[C@@H](OCc1ccccc1)[C@H]1O[C@@H](n2cc(-c3ccccc3)nn2)[C@H](OC(C)=O)[C@H]1OCc1ccccc1
Acetylcholinesterase [1]
  pKi: 5.45

## CC1(C)O[C@H]2[C@@H](O1)[C@@H](CNCCCCCCCCCNc1c3c(nc4ccccc14)CCCC3)O[C@@H]1OC(C)(C)O[C@@H]12
Acetylcholinesterase [3]
  pIC50: 8.32
Cholinesterase [4]
  pIC50: 7.43

## CCCCCCCCCCCCNC(=O)[C@@H](OCc1ccccc1)[C@H]1OC(OC(C)=O)[C@H](OC(C)=O)[C@H]1OC(C)=O (stereo not given in full)
Acetylcholinesterase [1]
  pKi: < 4.00

## CCCCCCCCCCCCNC(=O)[C@@H](OCc1ccccc1)[C@H]1O[C@H](n2cc(-c3ccccc3)nn2)[C@H](OC(C)=O)[C@H]1OCc1ccccc1
Acetylcholinesterase [1]
  pKi: 5.01

## O=c1c2ccccc2n(CCCCCCn2cc(CO[C@@H]3O[C@H](CO)[C@@H](O)[C@H]3O)nn2)c2ccccc12
Acetylcholinesterase [6]
  pIC50: 3.84
Homo sapiens
  Ratio IC50: 20.6
Cholinesterase [14]
  pKi: 5.75
[15]
  logP: 2.68
Cholinesterase [7]
  pIC50: 5.16

## CC1(C)O[C@H]2O[C@H](CNCCCCCCCCCCCNc3c4c(nc5ccccc35)CCCC4)[C@H](O)[C@H]2O1
Acetylcholinesterase [3]
  pIC50: 8.66
Cholinesterase [4]
  pIC50: 8.31

## CC1(C)O[C@H]2O[C@H](NCCCCCCCNc3c4c(nc5ccccc35)CCCC4)[C@H](O)[C@H]2O1
Acetylcholinesterase [3]
  pIC50: 8.06
Cholinesterase [4]
  pIC50: 7.57

## CCCCCCCCO[C@H]1[C@H](OC(C)=O)[C@@H](Cn2c(=O)c3c(ncn3C)n(C)c2=O)OC(NS(C)(=O)=O)[C@@H]1OC(C)=O (stereo not given in full)
Acetylcholinesterase [9]
  inhibition: 28.3%
Cholinesterase [10]
  inhibition: 52.6%

## CCCCCCCCCCCCNC(=O)[C@@H](OCc1ccccc1)[C@H]1OC(n2cc(-c3ccccc3)nn2)[C@H](OC(C)=O)[C@H]1OC(C)=O (stereo not given in full)
Acetylcholinesterase [1]
  pKi: 5.02

## CC(=O)Nc1nc(Cl)c2c(ncn2C2O[C@H](C(=O)NCc3ccccc3)[C@@H](OC(C)=O)[C@@H](OC(C)=O)[C@H]2OC(C)=O)n1 (stereo not given in full)
Acetylcholinesterase [11]
  pKi: 4.73
Cholinesterase [12]
  pKi: < 4.00

## COC1O[C@H](Cn2ccc(=O)n(C[C@H]3O[C@H](OC)[C@H](O)[C@@H](O)[C@@H]3O)c2=O)[C@@H](O)[C@H](O)[C@H]1O (stereo not given in full)
Acetylcholinesterase [1]
  pKi: 4.64
Cholinesterase [2]
  pKi: > 4.00

## CC1(C)O[C@H]2[C@@H](O1)[C@@H](CNCCCCCCCCCCNc1c3c(nc4ccccc14)CCCC3)O[C@@H]1OC(C)(C)O[C@@H]12
Acetylcholinesterase [3]
  pIC50: 8.12
Cholinesterase [4]
  pIC50: 7.59

Source: ChEMBL document CHEMBL5233206, “An overview on the synthesis of carbohydrate-based molecules with biological activity related to neurodegenerative diseases” (RSC Med Chem, 2021)
